The source of these data is patent US7384757B2 (Bristol-Myers Squibb Company, priority 2004, dated 2008).

One data set has as its system ACC and FAS. The data set can be described thus: ACC/FAS coupled SPA, effect of DMSO and purification reagents. The data set is classed as biochemical, rat. The settings on record: for effect on the enzyme reaction: ACC/FAS coupled SPA, FIG. 12. On the procedure: (§1) The [^3H]-acetyl CoA mix in the final reaction was 20 μM with 0.25 μCi per assay (specific activity of 250 μCi/μmol).
Compound Dilution: Compounds were dissolved in 100% DMSO to obtain 10 mM stock solution. A serial dilution of the compounds in 100% DMSO was made first. Then the compounds were diluted 1:33.3 in buffer to obtain 10× compound solution in 3% DMSO. From this intermediate dilution, a further 10× dilution was made in the assay, resulting 0.3% final DMSO concentration in the assay.
For screening in drug discovery, compounds are routinely dissolved in 100% DMSO and then further diluted to 1% or lower DMSO in the final assay. The effect of DMSO on the ACC/FAS coupled assay was studied. […] At 1% DMSO, the total signal decreased 25% and the S/B was reduced from 15 to 12 with a greater inhibition observed at higher concentrations. Therefore, it may be desirable to keep the final DMSO concentrations in the assay below 0.3%, and not to exceed 1%.
Buffers containing sucrose, glycerol and polyethylene glycol (PEG) were used in the purification of ACC and FAS. In addition, the purified enzymes were stored in buffers containing 20% glycerol to increase long-term stability. In view of this, the effects of glycerol, sucrose and PEG on the enzyme activities were studied with the ACC/FAS coupled SPA.

Data set [1] has as its system CC(=O)SCCNC(=O)CCNC(=O)[C@H](O)C(C)(C)COP(=O)(O)OP(=O)(O)OC[C@H]1O[C@@H](n2cnc3c(N)ncnc32)[C@H](O)[C@@H]1OP(=O)(O)O. The data set can be described thus: purified protein, by the assay type. The note with it: other: from saturation curve, other reagents saturating, 37° C., pH 7.6.
Data set [2] has as its target T1, rat acetyl CoA carboxylase 1 (rACC) (Rattus norvegicus, UniProt P11497).
T1 construct: from tissue; host or cells: rat liver (rats fasted 36 h, then fed a fat-free carbohydrate diet for 48 h)
The data set can be described thus: ACC/FAS coupled scintillation proximity assay, reagent titrations (Km, Kact). The settings on record: other reagents saturating, acetyl CoA 20 μM, 37° C. The data set is classed as biochemical. How it is done: The sequence of addition of the solution mixtures into each well of a custom 384-well phospholipid coated FLASHPLATE™ was as follows:
Step 1: Add 35 μl of enzyme mix in assay buffer.
Step 2: Add 5 μl of 3% DMSO or 10× compound in 3% DMSO.
Step 3: Incubate at room temperature for 10 min.
Step 5: Incubate the plate at 37° C. for 2 hours.
Step 6: Count the plate in a TOPCOUNT™ NXT for 2 min/well.

The target of data set [3] is T2, rat fatty acid synthase (rFAS) (Rattus norvegicus, UniProt P12785).
T2 construct: from tissue
T2 sequence (P12785 whole entry): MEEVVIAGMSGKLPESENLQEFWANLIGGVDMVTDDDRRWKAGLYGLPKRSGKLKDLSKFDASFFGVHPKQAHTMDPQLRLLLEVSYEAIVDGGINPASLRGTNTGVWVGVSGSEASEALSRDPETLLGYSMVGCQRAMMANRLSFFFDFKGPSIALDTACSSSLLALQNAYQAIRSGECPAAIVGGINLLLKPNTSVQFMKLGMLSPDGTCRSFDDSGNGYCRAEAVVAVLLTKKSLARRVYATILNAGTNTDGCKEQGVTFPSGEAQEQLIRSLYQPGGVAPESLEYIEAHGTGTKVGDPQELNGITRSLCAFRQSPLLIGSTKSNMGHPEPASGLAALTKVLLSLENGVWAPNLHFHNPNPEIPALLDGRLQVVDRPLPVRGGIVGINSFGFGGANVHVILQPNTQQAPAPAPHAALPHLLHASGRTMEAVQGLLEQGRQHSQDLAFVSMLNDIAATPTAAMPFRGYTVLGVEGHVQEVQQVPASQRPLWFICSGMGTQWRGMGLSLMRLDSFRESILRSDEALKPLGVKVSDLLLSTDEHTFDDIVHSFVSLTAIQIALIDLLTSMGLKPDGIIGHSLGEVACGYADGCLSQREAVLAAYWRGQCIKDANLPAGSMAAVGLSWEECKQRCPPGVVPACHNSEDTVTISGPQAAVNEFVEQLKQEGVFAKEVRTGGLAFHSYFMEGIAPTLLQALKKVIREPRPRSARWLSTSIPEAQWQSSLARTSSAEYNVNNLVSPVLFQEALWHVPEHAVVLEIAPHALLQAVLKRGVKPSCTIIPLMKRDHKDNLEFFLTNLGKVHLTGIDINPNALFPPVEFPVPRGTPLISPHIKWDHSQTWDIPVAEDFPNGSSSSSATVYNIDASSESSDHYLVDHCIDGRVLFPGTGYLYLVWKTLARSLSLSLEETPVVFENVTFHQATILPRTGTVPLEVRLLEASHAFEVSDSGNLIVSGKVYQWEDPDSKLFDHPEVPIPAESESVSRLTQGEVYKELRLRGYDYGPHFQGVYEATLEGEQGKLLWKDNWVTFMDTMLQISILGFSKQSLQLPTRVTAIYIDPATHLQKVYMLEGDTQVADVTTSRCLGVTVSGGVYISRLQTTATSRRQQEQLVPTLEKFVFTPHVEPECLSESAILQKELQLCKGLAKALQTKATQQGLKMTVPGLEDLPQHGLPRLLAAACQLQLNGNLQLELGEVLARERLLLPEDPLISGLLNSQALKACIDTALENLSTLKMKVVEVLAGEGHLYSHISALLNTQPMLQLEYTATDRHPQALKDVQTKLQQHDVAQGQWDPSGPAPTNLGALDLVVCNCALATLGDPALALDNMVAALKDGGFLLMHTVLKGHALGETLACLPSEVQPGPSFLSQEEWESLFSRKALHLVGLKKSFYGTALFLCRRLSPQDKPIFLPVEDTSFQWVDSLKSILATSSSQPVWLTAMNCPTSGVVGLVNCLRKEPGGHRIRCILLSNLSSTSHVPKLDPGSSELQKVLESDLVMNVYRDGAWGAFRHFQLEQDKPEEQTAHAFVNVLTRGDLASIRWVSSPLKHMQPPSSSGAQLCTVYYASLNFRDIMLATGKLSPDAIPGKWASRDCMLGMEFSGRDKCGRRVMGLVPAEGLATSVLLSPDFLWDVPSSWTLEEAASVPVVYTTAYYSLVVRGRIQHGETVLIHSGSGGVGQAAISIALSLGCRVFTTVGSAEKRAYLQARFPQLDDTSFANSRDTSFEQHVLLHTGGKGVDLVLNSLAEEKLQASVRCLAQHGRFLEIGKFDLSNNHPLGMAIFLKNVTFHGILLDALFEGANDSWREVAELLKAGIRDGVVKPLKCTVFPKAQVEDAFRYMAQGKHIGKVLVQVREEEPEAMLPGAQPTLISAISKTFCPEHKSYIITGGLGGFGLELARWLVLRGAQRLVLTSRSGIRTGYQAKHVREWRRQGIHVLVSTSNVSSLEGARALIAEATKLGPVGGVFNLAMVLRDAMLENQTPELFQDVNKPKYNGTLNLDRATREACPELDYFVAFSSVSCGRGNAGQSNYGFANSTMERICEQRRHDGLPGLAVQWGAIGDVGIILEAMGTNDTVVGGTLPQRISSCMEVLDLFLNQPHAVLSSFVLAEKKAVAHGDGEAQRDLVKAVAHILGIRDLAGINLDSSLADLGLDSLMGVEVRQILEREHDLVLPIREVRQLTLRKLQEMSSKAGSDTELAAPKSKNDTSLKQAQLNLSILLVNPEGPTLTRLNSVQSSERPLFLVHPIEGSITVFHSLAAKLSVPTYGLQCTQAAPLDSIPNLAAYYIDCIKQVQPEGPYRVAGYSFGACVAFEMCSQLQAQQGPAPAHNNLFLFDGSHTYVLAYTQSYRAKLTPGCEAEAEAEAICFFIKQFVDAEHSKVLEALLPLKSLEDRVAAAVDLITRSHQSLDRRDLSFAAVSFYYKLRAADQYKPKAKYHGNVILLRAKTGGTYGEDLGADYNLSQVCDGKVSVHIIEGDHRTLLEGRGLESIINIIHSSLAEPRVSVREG
The data set can be described thus: ACC/FAS coupled SPA, dependence of FAS activity on NADPH. Type of data set: biochemical. The settings on record: FAS cofactor, varied in the ACC/FAS coupled assay. On the procedure: as §1
The Km values for these FAS substrates can be determined independently. In the present study, the dependence of FAS activity on NADPH was determined by varying the cofactor concentration (FIG. 10). […] In this study, NADPH was maintained at saturating concentration of 100 μM.

Take `C[S+](C)[O-]` [DMSO]: the “effect on the activity of FAS or ACC” value in the data set on ACC and FAS (DMSO concentrations up to 0.3%) is given as “no significant effect”. The “decrease of total signal” value with ACC and FAS (at 1% DMSO) is recorded as 25%. On to `OC[C@H]1O[C@@](CO)(O[C@H]2O[C@H](CO)[C@@H](O)[C@H](O)[C@H]2O)[C@@H](O)[C@@H]1O` [sucrose], for which the “effect on the enzyme reaction” value in the data set on ACC and FAS is “none of these reagents have any significant effect”. For the compound “rat acetyl CoA carboxylase 1 (rACC) (Rattus norvegicus)”, the Km in data set [1] came out at 47 µM.

As to `OCC(O)CO` [glycerol], in the data set on ACC and FAS, the “effect on the enzyme reaction” value is listed as “none of these reagents have any significant effect”. `O=C([O-])O.[Na+]` [NaHCO3]: the Km in data set [2] (from saturation curve) is 1700 µM.

Turning to `NC(=O)C1=CN([C@@H]2O[C@H](COP(=O)(O)OP(=O)(O)OC[C@H]3O[C@@H](n4cnc5c(N)ncnc54)[C@H](OP(=O)(O)O)[C@@H]3O)[C@@H](O)[C@H]2O)C=CC1` [NADPH], the Km in data set [3] is 28 µM. On to `[Cl-].[Cl-].[Mg+2]` [MgCl2], for which the “Kact (half-maximal saturation value)” value in data set [2] was 6.3 mM.

By Km is commonly meant the substrate concentration at which the rate is half of its maximum.
